{"source": "paper PMC12183619", "about": "“A Phase 1 Safety Study of Evexomostat (SDX-7320) in Patients with Late-Stage Cancer: An Antiangiogenic, Insulin-Sensitizing Drug Conjugate Targeting METAP2” (Cancer Research Communications, 2025)", "key": {"METAP2": {"test_system": "METAP2", "design": "method as in PMID 16525646, PMID 9177176, PMID 10574784", "settings": "inactivates aminopeptidase activity; cited from earlier work"}, "[1]": {"assay": "Plasma pharmacokinetics by LC/MS-MS after subcutaneous dosing", "type": "in vivo, human", "method": "Blood samples were collected to enable PK bioanalyses at the following timepoints: cycles 1, 3, and 6: predose, 3, 6, 24, 48, and 96 hours after dosing, and days 8 (predose on the Q7D schedule), 15 (predose) and 22 (predose on the Q7D schedule); cycles 2, 4, 5, 7, and beyond: days 1 (predose), 8 (predose on the Q7D schedule), 15 (predose), and 22 (predose on the Q7D schedule). PK samples were collected on day 1 (predose, 3, 6, and 24 hours) for cycle 1 and then predose days 1 and 15 for even cycles and predose for odd cycles thereafter. Analysis of exploratory biomarkers was conducted using commercially available ELISA kits.\nThe levels of the released small-molecule METAP2 inhibitor SDX-7539 in plasma were measured using a validated LC/MS-MS method with a lower limit of quantification (LLOQ) of 10.0 pg/mL. The levels of the polymer–drug conjugate evexomostat in plasma were measured using a fit-for-purpose LC/MS-MS method. Target engagement was assessed at various times postdose in lysed whole blood using a validated ELISA designed to measure uninhibited METAP2 ([25]).\nAnalyses were conducted using SAS v 9.4 (SAS Institute) unless otherwise noted. AEs were coded in MedDRA v18.1 and analyzed by system organ class/preferred term. Treatment-related AEs (TRAE) were tabulated for all events occurring in two patients or more. Response was assessed using RECIST v1.1. PK analysis utilized WinNonlin v8.1 and a noncompartmental analysis approach."}, "patients": {"test_system": "patients", "design": "method as in PMID 10473076, PMID 12431966", "settings": "prior clinical trials; cited from earlier work"}, "VEGF-D": {"test_system": "VEGF-D", "design": "method as in PMID 17605814, PMID 24220935", "settings": "cited from earlier work"}, "[2]": {"settings": "released active moiety after subcutaneous evexomostat"}}, "data": [{"smiles": "CO[C@@H]1[C@H](OC(=O)/C=C/C=C/C=C/C=C/C(=O)O)CC[C@]2(CO2)[C@H]1[C@@]1(C)O[C@@H]1CC=C(C)C", "note": "[Fumagillin]", "values": [{"measurement": "binding to METAP2", "setting": "METAP2", "result": "potently and irreversibly binds to METAP2"}]}, {"smiles": "CO[C@@H]1[C@H](OC(=O)NC2CCC(N)CC2)CC[C@]2(CO2)[C@H]1[C@@]1(C)O[C@@H]1CC=C(C)C", "note": "(some centres unmarked) [SDX-7539]", "values": [{"measurement": "relationship of plasma Cmax and AUC in cycle 1 with reductions in platelets", "setting": "[1]; % change from baseline to C1D8 or C1D15", "result": "potential relationship"}, {"measurement": "time with detectable plasma levels", "setting": "[1]; following a single dose of evexomostat", "result": 7, "unit": "days"}, {"measurement": "plasma exposure (Cmax, AUC0-t) vs dose", "setting": "[1]; released SDX-7539 vs administered dose of SDX-7320", "result": "variability with increasing dose"}, {"measurement": "Tmax in plasma", "setting": "[1]; [2]", "result": 29, "unit": "h"}, {"measurement": "Tmax in plasma, range", "setting": "[1]; [2]", "result": "6 to 96", "unit": "h"}]}, {"smiles": "CO[C@@H]1[C@H](OC(=O)NC(=O)CCl)CC[C@]2(CO2)[C@H]1[C@@]1(C)O[C@@H]1CC=C(C)C", "note": "[TNP-470]", "values": [{"measurement": "dose-limiting CNS toxicities", "setting": "patients", "result": "dose-limiting CNS toxicities were observed"}]}, {"smiles": "CCN(CC)CCNC(=O)c1c(C)[nH]c(/C=C2\\C(=O)Nc3ccc(F)cc32)c1C", "note": "[sunitinib]", "values": [{"measurement": "change in circulating VEGF-D", "setting": "VEGF-D", "result": "increase circulating VEGF-D"}]}]}
